Data as given in patent US6706663B2, “Herbicidal 3-heterocyclic substituted benzisothiazole and benzisoxazole compounds” (Wyeth, priority 2000, dated 2004).

Assays:
GALAP (Galium aparine) [1] = assay: Preemergence herbicidal evaluation; type: in vivo; conditions: preemergence, rated 4-5 weeks after treatment
Procedure, shortened: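 Scores (0–9) reflect visual comparison with control plants for stand, vigor, malformation, size and chlorosis. Seeds in potting soil received a post-planting spray of compound in aqueous acetone and grew in a greenhouse until assessment 4–5 weeks later.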

SETVI (Setaria viridis) = assay: Postemergence herbicidal evaluation; type: in vivo, (L.) Beau
Procedure, shortened: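 ~2-wk seedlings; spray 0.0040–1.000 kg/ha in 50/50 acetone/water + 0.5% TWEEN 20, 40 psi nozzle. Greenhouse hold; visual 0–9 rating vs control at 4–5 wk; multiple tests averaged.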

ORYSAT (Rice, Tebonnet) = assay: Preemergence herbicidal evaluation; type: in vivo, Oryza sativa, (L.) Tebonnet; conditions: preemergence, rated 4-5 weeks after treatment
[2] = tested on: TRZAWR (Wheat, Winter, cv Riband); assay: Postemergence herbicidal evaluation; type: in vivo, Triticum aestivum
Procedure, shortened: (§1)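 Seedlings grown about two weeks in flats, sprayed, then kept under standard greenhouse care. Rated visually 4–5 weeks after treatment on a 0–9 scale (stand, vigour, malformation, size, chlorosis, overall appearance) relative to untreated control; repeat tests averaged.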

[3] = tested on: ECHCG (Echinochloa crus-galli); assay: Postemergence herbicidal evaluation; type: in vivo, (L.) Beau
Procedure, shortened: as §1

GALAP (Galium aparine) [4] = assay: Postemergence herbicidal evaluation; type: in vivo
Procedure, shortened: as §1

[5] = tested on: ECHORC (Echinochloa oryzoides); assay: Flooded paddy, preemergence weed control; type: in vivo, Echinochloa oryzoides (Ard.) Fritsch.; conditions: rated 3-4 weeks after treatment, 0-9 rating scale
Procedure, shortened: (§2)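 Plants were established from seed or propagating organs in flooded silt loam, with the water surface held 1.5 to 3 cm above the soil for the entire experiment. Injury was assessed visually against a control and given a 0-9 score.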

[6] = tested on: CYPSE (Cyperus serotinus); assay: Flooded paddy, preemergence weed control; type: in vivo, Rottb.; conditions: rated 3-4 weeks after treatment, 0-9 rating scale
Procedure, shortened: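 Seeds or propagules were planted 0.5 cm deep in silt loam and flooded to 1.5–3 cm. Compounds in 50/50 v/v aqueous/acetone were pipetted into the flood water at about 0.0080 to 0.1250 kg/ha. After 3–4 weeks in the greenhouse, effect was rated visually on a 0–9 scale versus untreated control.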

[7] = tested on: SAGPY (Sagittaria pygmaea); assay: Flooded paddy, preemergence weed control; type: in vivo, L.; conditions: rated 3-4 weeks after treatment, 0-9 rating scale
Procedure, shortened: as §2

ZEAMX (Corn, Field) = assay: Postemergence herbicidal evaluation; type: in vivo, Zea mays, L.
Procedure, shortened: as §1

SMILES | GALAP preemergence herbicidal rating (GALAP (Galium aparine) [1]; Rate 0.0620 kg/ha) | GALAP preemergence herbicidal rating (GALAP (Galium aparine) [1]; Rate 0.1250 kg/ha) | GALAP preemergence herbicidal rating (GALAP (Galium aparine) [1]; Rate 0.2500 kg/ha) | Postemergence herbicidal rating, SETVI (SETVI (Setaria viridis); rate 0.0320 kg/ha) | Postemergence herbicidal rating, SETVI (SETVI (Setaria viridis); rate 0.0620 kg/ha) | ORYSAT preemergence herbicidal rating (ORYSAT (Rice, Tebonnet); Rate 0.0620 kg/ha) | ORYSAT preemergence herbicidal rating (ORYSAT (Rice, Tebonnet); Rate 0.1250 kg/ha) | ORYSAT preemergence herbicidal rating (ORYSAT (Rice, Tebonnet); Rate 0.2500 kg/ha) | Postemergence herbicidal rating, TRZAWR ([2]; rate 0.0320 kg/ha) | Postemergence herbicidal rating, TRZAWR ([2]; rate 0.0620 kg/ha) | Postemergence herbicidal rating, ECHCG ([3]; rate 0.0320 kg/ha) | Postemergence herbicidal rating, ECHCG ([3]; rate 0.0620 kg/ha) | Postemergence herbicidal rating, GALAP (GALAP (Galium aparine) [4]; rate 0.0320 kg/ha) | Postemergence herbicidal rating, GALAP (GALAP (Galium aparine) [4]; rate 0.0620 kg/ha) | herbicidal rating, ECHORC ([5]; rate 0.0320 kg/ha) | herbicidal rating, ECHORC ([5]; rate 0.1250 kg/ha) | herbicidal rating, CYPSE ([6]; rate 0.0320 kg/ha) | herbicidal rating, CYPSE ([6]; rate 0.1250 kg/ha) | herbicidal rating, SAGPY ([7]; rate 0.0320 kg/ha) | herbicidal rating, SAGPY ([7]; rate 0.1250 kg/ha) | further results
COc1ccsc1-c1nsc2ccc(-n3c(=O)cc(C(F)(F)F)n(C)c3=O)cc12 [Compound 10, 3-[3-(3-methoxy-2-thienyl)-1,2-benzisothiazol-5-yl]-1-methyl-6-(trifluoromethyl)uracil] | 5.0 | 8.5 | 8.0 | 0.0 | 0.5 | 1.0 | 3.0 | 7.0 | 2.5 | 2.8 | 0.0 | 0.0 | 1.0 | 1.0 | 0.0 | 5.0 | 0.0 | 0.0 | 0.0 | 0.0 | Postemergence herbicidal rating, SETVI (SETVI (Setaria viridis); rate 0.1250 kg/ha): 0.0; Postemergence herbicidal rating, TRZAWR ([2]; rate 0.1250 kg/ha): 4.0; Postemergence herbicidal rating, ECHCG ([3]; rate 0.1250 kg/ha): 0.0; Postemergence herbicidal rating, GALAP (GALAP (Galium aparine) [4]; rate 0.1250 kg/ha): 9.0; Postemergence herbicidal rating, ZEAMX (ZEAMX (Corn, Field); rate 0.0320 kg/ha): 3.8; Postemergence herbicidal rating, ZEAMX (ZEAMX (Corn, Field); rate 0.0620 kg/ha): 5.0; Postemergence herbicidal rating, ZEAMX (ZEAMX (Corn, Field); rate 0.1250 kg/ha): 5.0
Cc1ccn(-c2nsc3ccc(-n4c(=O)cc(C(F)(F)F)n(C)c4=O)cc23)n1 [Compound 38, 1-methyl-3-[3-(3-methylpyrazol-1-yl)-1,2-benzisothiazol-5-yl]-6-(trifluoromethl)uracil] | 5.0 | 3.0 | 5.0 | 0.0 | 3.0 | 4.0 | 5.0 | 7.0 | 3.5 | 4.0 | 0.0 | 3.0 | 0.0 | 4.0 | 7.0 | 9.0 | 9.0 | 9.0 | 4.5 | 9.0 | herbicidal rating, ECHORC ([5]; rate 0.0080 kg/ha): 0.0; herbicidal rating, SAGPY ([7]; rate 0.0080 kg/ha): 0.0; Postemergence herbicidal rating, ZEAMX (ZEAMX (Corn, Field); rate 0.0320 kg/ha): 5.0; Postemergence herbicidal rating, ZEAMX (ZEAMX (Corn, Field); rate 0.0620 kg/ha): 5.5
